Test results reported in ChEMBL document CHEMBL4043249, “Discovery of potent antiviral (HSV-1) quinazolinones and initial structure-activity relationship studies” (Bioorg Med Chem Lett, 2017).
Active and inactive are the calls of the source. The calls are words filed in the database; no cut-off is given here.

Experiments:
[1] = system: Human alphaherpesvirus 1; test: Anti-viral activity against Herpes simplex virus-1 harboring EGFP infected in iPSC-derived neurons assessed as early apoptotic cells at 50 mM treated 2 hrs post infection measured after 72 hrs by Alexa fluor 488 staining based flow cytometric analysis (reference value: 13.2%); assay type: functional
[2] = system: Vero; test: Cytotoxicity against African green monkey Vero cells assessed as effect on cell viability at 10 to 1000000 nM; assay type: cell-based; conditions: chlorocebus sabaeus, 1000 µM
[3] = system: NSC; test: Cytotoxicity against NSC (unknown origin) assessed as effect on cell viability at 10 to 1000000 nM; assay type: cell-based; conditions: 1000 µM
[4] = system: Human alphaherpesvirus 1; test: Anti-viral activity against Herpes simplex virus-1 harboring EGFP infected in iPSC-derived neurons assessed as viable cells at 10 mM treated 2 hrs post infection measured after 72 hrs by Alexa fluor 488 staining based flow cytometric analysis (reference value: 17.8%); assay type: functional
[5] = system: Human alphaherpesvirus 1; test: Anti-viral activity against Herpes simplex virus-1 harboring EGFP infected in iPSC-derived neurons assessed as late apoptotic cells at 10 mM treated 2 hrs post infection measured after 72 hrs by Alexa fluor 488 staining based flow cytometric analysis (reference value: 65.7%); assay type: functional
[6] = system: Human alphaherpesvirus 1; test: Anti-viral activity against Herpes simplex virus-1 harboring EGFP infected in iPSC-derived neurons assessed as necrotic cells at 50 mM treated 2 hrs post infection measured after 72 hrs by Alexa fluor 488 staining based flow cytometric analysis (reference value: 3.33%); assay type: functional
[7] = system: Neuron; test: Cytotoxicity against neurons (unknown origin) assessed as effect on cell viability at 10 to 1000000 nM; assay type: cell-based; conditions: 1000 µM
[8] = system: Human alphaherpesvirus 1; test: Anti-viral activity against Herpes simplex virus-1 harboring EGFP infected in iPSC-derived neurons assessed as viable cells at 50 mM treated 2 hrs post infection measured after 72 hrs by Alexa fluor 488 staining based flow cytometric analysis (reference value: 17.8%); assay type: functional
[9] = system: Human alphaherpesvirus 1; test: Anti-viral activity against Herpes simplex virus-1 harboring EGFP infected in iPSC-derived neurons assessed as late apoptotic cells at 50 mM treated 2 hrs post infection measured after 72 hrs by Alexa fluor 488 staining based flow cytometric analysis (reference value: 65.7%); assay type: functional
[10] = system: Human alphaherpesvirus 1; test: Anti-viral activity against Herpes simplex virus-1 harboring EGFP infected in iPSC-derived neurons assessed as early apoptotic cells at 10 mM treated 2 hrs post infection measured after 72 hrs by Alexa fluor 488 staining based flow cytometric analysis (reference value: 13.2%); assay type: functional
[11] = system: Human alphaherpesvirus 1; test: Anti-viral activity against Herpes simplex virus-1 harboring EGFP infected in iPSC-derived neurons assessed as necrotic cells at 10 mM treated 2 hrs post infection measured after 72 hrs by Alexa fluor 488 staining based flow cytometric analysis (reference value: 3.33%); assay type: functional
[12] = system: Human alphaherpesvirus 1; test: Anti-viral activity against Herpes simplex virus-1 harboring EGFP infected in iPSC-derived neurons assessed as reduction in ICP0 expression at 10 to 50 uM treated 2 hrs post infection measured after 72 hrs by Alexa fluor 488 staining based flow cytometric analysis; assay type: functional
[13] = system: Human alphaherpesvirus 1; test: Anti-viral activity against Herpes simplex virus-1 harboring EGFP infected in iPSC-derived neurons assessed as reduction in ICP0 expression treated 2 hrs post infection measured after 72 hrs by Alexa fluor 488 staining based flow cytometric analysis; assay type: functional
[14] = Cytotoxicity against human induced pluripotent stem cell-derived neurons assessed as morphological changes after 48 to 72 hrs by live/dead fixable aqua dead cell staining based assay; conditions: induced pluripotent stem cell-derived neuron
[15] = Cytotoxicity against human induced pluripotent stem cell-derived neurons assessed as effect on cell viability after 24 hrs by live/dead fixable aqua dead cell staining based assay; conditions: induced pluripotent stem cell-derived neuron
[16] = system: Human alphaherpesvirus 1; test: Anti-viral activity against Herpes simplex virus-1 harboring EGFP infected in iPSC-derived neurons assessed as reduction in ICP0 expression at 50 uM treated 2 hrs post infection measured after 72 hrs by Alexa fluor 488 staining based flow cytometric analysis; assay type: functional
[17] = system: Human alphaherpesvirus 1; test: Anti-viral activity against Herpes simplex virus-1 harboring EGFP infected in iPSC-derived neurons assessed as reduction in ICP0 expression at 10 uM treated 2 hrs post infection measured after 72 hrs by Alexa fluor 488 staining based flow cytometric analysis; assay type: functional
[18] = Induction of heterochromatinization in Induced pluripotent stem cell-derived neuron (unknown origin) infected with HSV-1 assessed as increase in H3K27 trimethylation at ICP4 gene by chromatin immunoprecipitation based RT-PCR analysis

## COc1ccc(-n2c(-c3ccc(OCc4ccc(Br)cc4)cc3)nc3ccccc3c2=O)cc1
[1]
  Activity: 3.36%
[2]
  Activity: Toxic
[3]
  Activity: Toxic
[4]
  Activity: 91.6%
[5]
  Activity: 4.64%
[6]
  Activity: 2.91%
[7]
  Activity: Toxic
[8]
  Activity: 88.9%
[9]
  Activity: 5.03%
[10]
  Activity: 3.18%
[11]
  Activity: 0.6%
[12]
  Activity: Active

## COc1ccc(-c2nc3ccccc3c(=O)n2-c2ccc(Br)cc2)cc1
[13]
  Activity: Active

## Nc1nc2c(ncn2COCCO)c(=O)[nH]1 [ACYCLOVIR]
[1]
  Activity: 6.22%
[4]
  Activity: 89.6%
[5]
  Activity: 1.36%
[6]
  Activity: 0.76%
[8]
  Activity: 92.6%
[9]
  Activity: 0.44%
[10]
  Activity: 7.92%
[11]
  Activity: 1.13%

## O=c1[nH]c(-c2ccc(OCc3ccccc3)cc2)nc2ccccc12
[13]
  Activity: inactive

## COc1ccc(-n2c(-c3ccc(OCc4ccccc4)cc3)nc3ccccc3c2=O)cc1
[13]
  Activity: Active
[14]
  Activity: Toxic
[15]
  Activity: Toxic
[16]
  Activity: Active

## COc1ccc(-n2c(-c3ccc(Oc4ccc(Cl)cc4)cc3)nc3ccccc3c2=O)cc1
[12]
  Activity: inactive

## CCCCCCn1c(-c2ccc(OCc3ccccc3)cc2)nc2ccccc2c1=O
[13]
  Activity: inactive

## O=c1c2ccccc2nc(-c2ccc(OCc3ccc(Br)cc3)cc2)n1-c1ccc(Br)cc1
[12]
  Activity: Active

## O=c1c2ccccc2nc(-c2ccc(OCc3cccc(Br)c3)cc2)n1-c1ccc(Br)cc1
[12]
  Activity: Active

## O=c1c2ccccc2nc(-c2ccc(Br)cc2)n1-c1ccc(Br)cc1
[13]
  Activity: Active

## COc1ccc(-n2c(-c3ccc(Oc4ccc(OC(F)(F)F)cc4)cc3)nc3ccccc3c2=O)cc1
[12]
  Activity: inactive

## COc1ccc(Oc2ccc(-c3nc4ccccc4c(=O)n3-c3ccc(OC)cc3)cc2)cc1
[12]
  Activity: inactive

## COc1ccc(-n2c(-c3ccc(Oc4ccccc4)cc3)nc3ccccc3c2=O)cc1
[12]
  Activity: inactive

## O=c1c2ccccc2nc(-c2ccc(OCc3ccccc3)cc2)n1-c1ccc(Br)cc1
[13]
  Activity: Active
[17]
  Activity: Active
[14]
  Activity: Toxic
[18]
  Activity: Non-Toxic
[15]
  Activity: Toxic
[16]
  Activity: Active

## COc1ccc(-n2c(-c3ccc(Nc4ccccc4)cc3)nc3ccccc3c2=O)cc1
[12]
  Activity: inactive

## COc1ccc(-n2c(-c3ccc(OCc4cccc(Br)c4)cc3)nc3ccccc3c2=O)cc1
[1]
  Activity: 3.76%
[2]
  Activity: Toxic
[3]
  Activity: Toxic
[4]
  Activity: 90.1%
[5]
  Activity: 6.1%
[6]
  Activity: 4.31%
[7]
  Activity: Toxic
[8]
  Activity: 82%
[9]
  Activity: 9.96%
[10]
  Activity: 3.24%
[11]
  Activity: 0.59%
[12]
  Activity: Active
